Reference: ChEMBL document CHEMBL1121781, “Potential antitumor agents. 34. Quantitative relationships between DNA binding and molecular structure for 9-anilinoacridines substituted in the anilino ring” (J Med Chem, 1981)
Calls of active or inactive are those of the source. No cut-off for these calls is given here.

Key:
Nucleic Acid [1] = test system: Nucleic Acid
Description: Association constant for binding to poly [d(A-T)]

Nucleic Acid [2] = test system: Nucleic Acid; remark: listed apart in the source
Description: Association constant for binding to poly [d(G-C)]

Calf thymus DNA = details: Bos taurus
Description: Inhibitory concentration against ethidium binding to DNA

Description for Mus musculus: Maximum percent increase in life span of mice
Description for physchem: Ionisation constant (pKa)

SMILES	Log K (Nucleic Acid [1])	Log K (Nucleic Acid [2])	C50 (Calf thymus DNA) [µM]	pKa (physchem)	ILS (Mus musculus)
Nc1cccc(Nc2c3ccccc3nc3ccccc23)c1	6.11	6.01	8.6	7.58	–
NC(=O)c1ccc(Nc2c3ccccc3nc3ccccc23)cc1	5.83	5.77	18	–	inactive
N#Cc1ccc(Nc2c3ccccc3nc3ccccc23)cc1	5.7	5.86	15	5.93	inactive
O=C(Nc1ccc(Nc2c3ccccc3nc3ccccc23)cc1)c1ccccc1	6.2	6.14	5.4	7.39	–
CN(c1ccccc1Nc1c2ccccc2nc2ccccc12)S(C)(=O)=O	5.08	5.46	37	6.97	inactive
Fc1ccc(Nc2c3ccccc3nc3ccccc23)cc1	5.9	5.85	16	7.5	inactive
CS(=O)(=O)NCc1ccccc1Nc1c2ccccc2nc2ccccc12	5.6	5.39	46	7.17	inactive
O=C(Nc1ccccc1)Nc1ccc(Nc2c3ccccc3nc3ccccc23)cc1	6.37	6.3	3.8	7.67	–
CCc1ccccc1Nc1c2ccccc2nc2ccccc12	5.18	5.15	83	7.68	inactive
Fc1ccccc1Nc1c2ccccc2nc2ccccc12	5.59	5.65	27	6.84	inactive
CC(=O)c1ccc(Nc2c3ccccc3nc3ccccc23)cc1	5.87	5.89	14	6.12	inactive
COC(=O)c1ccccc1Nc1c2ccccc2nc2ccccc12	5.47	5.41	40	6.3	inactive
CS(=O)(=O)Nc1cccc(Nc2c3ccccc3nc3ccccc23)c1	–	5.86	15	–	–
Ic1ccccc1Nc1c2ccccc2nc2ccccc12	5.33	5.27	126	6.47	inactive
NS(=O)(=O)c1ccccc1Nc1c2ccccc2nc2ccccc12	5.67	5.77	18	–	inactive
O=[N+]([O-])c1ccc(Nc2c3ccccc3nc3ccccc23)cc1	5.48	5.69	19	–	inactive
Nc1ccc(Nc2c3ccccc3nc3ccccc23)cc1	6.31	6.23	2.3	8.36	–
CCCNc1ccc(Nc2c3ccccc3nc3ccccc23)cc1	6.35	6.28	2	8.25	inactive
NC(=O)c1ccccc1Nc1c2ccccc2nc2ccccc12	5.37	5.43	38	–	inactive
Nc1ccccc1Nc1c2ccccc2nc2ccccc12	5.76	5.76	13	7.87	inactive
CCCCNc1ccc(Nc2c3ccccc3nc3ccccc23)cc1	6.45	6.39	1.6	8.24	inactive
c1ccc(Nc2c3ccccc3nc3ccccc23)cc1	5.86	5.85	16	7.46	inactive
Oc1cccc(Nc2c3ccccc3nc3ccccc23)c1	6	6.1	8.2	7.3	inactive

SMILES	Log K (Nucleic Acid [1])	Log K (Nucleic Acid [2])	C50 (Calf thymus DNA) [µM]	pKa (physchem)	ILS (Mus musculus)
Cc1cccc(Nc2c3ccccc3nc3ccccc23)c1	6.09	5.9	15	7.52	inactive
Nc1ccc(S(=O)(=O)Nc2ccc(Nc3c4ccccc4nc4ccccc34)cc2)cc1	6.3	6.26	4.4	7.15	–
Cc1ccc(Nc2c3ccccc3nc3ccccc23)cc1	5.99	5.99	10	7.72	–
c1ccc(Nc2c3ccccc3nc3ccccc23)nc1	5.6	5.43	42	6.32	inactive
CCNc1ccc(Nc2c3ccccc3nc3ccccc23)cc1	6.44	6.36	1.7	8.3	–
NS(=O)(=O)c1ccc(Nc2c3ccccc3nc3ccccc23)cc1	5.96	5.92	14	–	inactive
CC(C)(C)c1ccccc1Nc1c2ccccc2nc2ccccc12	5.23	5.09	100	7.62	inactive
CC(=O)Nc1cccc(Nc2c3ccccc3nc3ccccc23)c1	5.9	5.96	13	7.16	–
COc1ccc(Nc2c3ccccc3nc3ccccc23)cc1	6.12	6.08	7.4	7.94	inactive
Clc1ccc(Nc2c3ccccc3nc3ccccc23)cc1	5.99	5.91	14	7.06	inactive
COC(=O)Nc1ccccc1Nc1c2ccccc2nc2ccccc12	5.56	5.78	17	7.24	inactive
CC(=O)Nc1ccc(Nc2c3ccccc3nc3ccccc23)cc1	–	–	4.7	7.51	–
CN(c1ccc(Nc2c3ccccc3nc3ccccc23)cc1)S(C)(=O)=O	5.89	6	9.9	–	–
CNc1ccc(Nc2c3ccccc3nc3ccccc23)cc1	6.55	6.54	1.2	8.42	–
Oc1ccc(Nc2c3ccccc3nc3ccccc23)cc1	6.28	6.21	5.1	7.91	–
CNC(=O)Nc1ccc(Nc2c3ccccc3nc3ccccc23)cc1	–	–	4.1	7.77	–
CN(C)c1ccc(Nc2c3ccccc3nc3ccccc23)cc1	6.51	6.29	2	8.46	–
COC(=O)c1ccc(Nc2c3ccccc3nc3ccccc23)cc1	5.88	5.86	15	–	–
O=[N+]([O-])c1ccccc1Nc1c2ccccc2nc2ccccc12	5.36	5.49	36	–	inactive
O=S(=O)(Nc1ccc(Nc2c3ccccc3nc3ccccc23)cc1)c1ccccc1	6.2	6.23	5.7	7.09	–
CS(=O)(=O)Nc1ccc(Nc2c3ccccc3nc3ccccc23)cc1	–	–	8.9	–	–
COC(=O)Nc1ccc(Nc2c3ccccc3nc3ccccc23)cc1	–	6.23	5.3	7.64	–
COc1ccccc1Nc1c2ccccc2nc2ccccc12	5.5	5.47	34	7.74	–
